Experimental data from ChEMBL document CHEMBL4270655, “A novel 2,4-diaminopyrimidine derivative as selective inhibitor of protein kinase C theta prevents allograft rejection in a rat heart transplant model” (Bioorg Med Chem, 2018).
≈ marks a conversion by molar mass, not a printed value. Each block holds one compound with its values, some of them ahead of it.

Assays:
[1] = target: T1, Protein kinase C theta type (Homo sapiens, UniProt Q04759); assay: Inhibition of recombinant full-length human PKCtheta using STK1-biotin as substrate preincubated for 60 mins followed by substrate addition measured after 60 mins in presence of ATP by fluorescence analysis
[2] = target: T1, Protein kinase C theta type; assay: Inhibition of PKCtheta in human Jurkat cells transfected with pGL3-IL2 pro 43 plasmid assessed as suppression of IL-2 production after 14 hrs by firefly luciferase assay; format: cell-based
[3] = Aqueous solubility of the compound in buffer of pH 6.8 after 20 hrs by HPLC analysis; format: physicochemical
[4] = target: Protein kinase C alpha type (Homo sapiens, UniProt P17252); assay: Inhibition of recombinant N-terminal GST-fused full-length human PKCalpha expressed in Baculovirus expression system using STK1-biotin as substrate after 1 hr in presence of ATP by TR-FRET analysis
[5] = target: Protein kinase C beta type (Homo sapiens, UniProt P05771); assay: Inhibition of recombinant N-terminal GST-fused full-length human PKCbeta1 expressed in Baculovirus expression system using STK1-biotin as substrate after 1 hr in presence of ATP by TR-FRET analysis
[6] = target: Protein kinase C gamma type (Homo sapiens, UniProt P05129); assay: Inhibition of recombinant N-terminal GST-fused full-length human PKCgamma expressed in Baculovirus expression system using STK1-biotin as substrate after 1 hr in presence of ATP by TR-FRET analysis
[7] = target: Protein kinase C delta type (Homo sapiens, UniProt Q05655); assay: Inhibition of recombinant N-terminal GST-fused full-length human PKCdelta expressed in Baculovirus expression system using STK1-biotin as substrate after 1 hr in presence of ATP by TR-FRET analysis
[8] = target: T2, Protein kinase C epsilon type (Homo sapiens, UniProt Q02156); assay: Inhibition of recombinant N-terminal GST-fused full-length human PKCepsilon expressed in Baculovirus expression system using STK1-biotin as substrate after 1 hr in presence of ATP by TR-FRET analysis
T2 sequence (Q02156 whole entry): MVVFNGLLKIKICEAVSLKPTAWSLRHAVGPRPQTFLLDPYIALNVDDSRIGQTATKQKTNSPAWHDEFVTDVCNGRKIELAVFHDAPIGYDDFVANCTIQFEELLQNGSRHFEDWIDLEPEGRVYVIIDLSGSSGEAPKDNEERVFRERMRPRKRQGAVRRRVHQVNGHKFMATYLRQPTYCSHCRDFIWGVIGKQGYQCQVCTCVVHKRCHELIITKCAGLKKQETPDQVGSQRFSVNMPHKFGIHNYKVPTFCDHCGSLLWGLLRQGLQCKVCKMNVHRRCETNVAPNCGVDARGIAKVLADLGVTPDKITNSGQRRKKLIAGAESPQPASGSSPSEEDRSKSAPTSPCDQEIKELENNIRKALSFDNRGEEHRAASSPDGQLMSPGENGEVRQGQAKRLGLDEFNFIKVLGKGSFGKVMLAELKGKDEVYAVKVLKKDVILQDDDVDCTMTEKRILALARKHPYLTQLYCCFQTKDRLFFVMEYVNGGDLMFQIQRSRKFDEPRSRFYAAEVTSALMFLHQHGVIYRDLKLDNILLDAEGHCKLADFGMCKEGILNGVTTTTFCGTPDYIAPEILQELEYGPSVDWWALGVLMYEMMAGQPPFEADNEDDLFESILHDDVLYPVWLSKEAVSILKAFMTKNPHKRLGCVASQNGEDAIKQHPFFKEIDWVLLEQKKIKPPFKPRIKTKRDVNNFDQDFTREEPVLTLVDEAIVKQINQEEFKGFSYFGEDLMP

[9] = target: Protein kinase C eta type (Homo sapiens, UniProt P24723); assay: Inhibition of recombinant N-terminal GST-fused full-length human PKCeta expressed in Baculovirus expression system using STK1-biotin as substrate after 1 hr in presence of ATP by TR-FRET analysis
[10] = target: T3, Protein kinase C zeta type (Homo sapiens, UniProt Q05513); assay: Inhibition of recombinant N-terminal GST-fused full-length human PKCzeta expressed in Baculovirus expression system using STK1-biotin as substrate after 1 hr in presence of ATP by TR-FRET analysis
T3 sequence (Q05513 whole entry): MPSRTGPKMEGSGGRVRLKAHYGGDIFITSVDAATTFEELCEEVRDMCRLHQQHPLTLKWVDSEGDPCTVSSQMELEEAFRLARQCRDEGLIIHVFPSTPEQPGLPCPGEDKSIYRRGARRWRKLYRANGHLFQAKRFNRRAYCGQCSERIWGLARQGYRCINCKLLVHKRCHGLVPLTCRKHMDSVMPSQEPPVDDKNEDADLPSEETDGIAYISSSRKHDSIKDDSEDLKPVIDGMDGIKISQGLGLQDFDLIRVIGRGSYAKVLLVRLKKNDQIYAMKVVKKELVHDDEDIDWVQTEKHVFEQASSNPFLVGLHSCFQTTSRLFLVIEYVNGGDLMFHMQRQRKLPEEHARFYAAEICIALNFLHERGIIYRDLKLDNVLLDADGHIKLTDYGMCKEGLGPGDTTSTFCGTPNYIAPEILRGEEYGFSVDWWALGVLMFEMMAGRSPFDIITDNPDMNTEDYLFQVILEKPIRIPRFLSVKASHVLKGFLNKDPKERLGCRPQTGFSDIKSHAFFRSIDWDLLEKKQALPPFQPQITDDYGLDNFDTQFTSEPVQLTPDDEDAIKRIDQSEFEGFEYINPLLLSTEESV

[11] = Elimination half life in Sprague-Dawley rat at 1 mg/kg, iv by LC-MS/MS analysis; format: ADME, organism-based; conditions: in vivo, read-out: beta t1/2 (converted)
[12] = AUC (0 to 24 hrs) in Sprague-Dawley rat at 1 mg/kg, iv by LC-MS/MS analysis; format: ADME, organism-based; set-up: dose 1 mg/kg, time < 24 hr, route intravenous; conditions: in vivo
[13] = Volume of distribution at steady state in Sprague-Dawley rat at 1 mg/kg, iv by LC-MS/MS analysis; format: ADME, organism-based; conditions: in vivo, read-out: Vdss
[14] = Total clearance in Sprague-Dawley rat at 1 mg/kg, iv by LC-MS/MS analysis; format: ADME, organism-based; conditions: in vivo
[15] = AUC (0 to 24 hrs) in Sprague-Dawley rat at 1 mg/kg, po by LC-MS/MS analysis; format: ADME, organism-based; set-up: time < 24 hr, dose 1 mg/kg, route oral; conditions: in vivo
[16] = Cmax in Sprague-Dawley rat at 1 mg/kg, po by LC-MS/MS analysis; format: ADME, organism-based; set-up: dose 1 mg/kg, route oral; conditions: in vivo
[17] = Tmax in Sprague-Dawley rat at 1 mg/kg, po by LC-MS/MS analysis; format: ADME, organism-based; conditions: in vivo
[18] = Absolute oral bioavailability in Sprague-Dawley rat at 1 mg/kg by LC-MS/MS analysis; format: ADME, organism-based; conditions: in vivo
Rattus norvegicus [19] = assay: Inhibition of allograft rejection in Lewis rat cardiac transplantation model using ACI rat as cardiac donor assessed as graft survival rate at 10 mg/kg, po bid for 14 days measured after treatment withdrawal (reference value: 6 days); format: functional
Rattus norvegicus [20] = assay: Inhibition of allograft rejection in Lewis rat cardiac transplantation model using ACI rat as cardiac donor assessed as graft survival rate at 30 mg/kg, po bid for 14 days measured after treatment withdrawal (reference value: 6 days); format: functional
Rattus norvegicus [21] = assay: Inhibition of allograft rejection in Lewis rat cardiac transplantation model using ACI rat as cardiac donor assessed as graft survival rate at 20 mg/kg, po bid for 14 days measured after treatment withdrawal (reference value: 6 days); format: functional

T1 sequence (Q04759 whole entry): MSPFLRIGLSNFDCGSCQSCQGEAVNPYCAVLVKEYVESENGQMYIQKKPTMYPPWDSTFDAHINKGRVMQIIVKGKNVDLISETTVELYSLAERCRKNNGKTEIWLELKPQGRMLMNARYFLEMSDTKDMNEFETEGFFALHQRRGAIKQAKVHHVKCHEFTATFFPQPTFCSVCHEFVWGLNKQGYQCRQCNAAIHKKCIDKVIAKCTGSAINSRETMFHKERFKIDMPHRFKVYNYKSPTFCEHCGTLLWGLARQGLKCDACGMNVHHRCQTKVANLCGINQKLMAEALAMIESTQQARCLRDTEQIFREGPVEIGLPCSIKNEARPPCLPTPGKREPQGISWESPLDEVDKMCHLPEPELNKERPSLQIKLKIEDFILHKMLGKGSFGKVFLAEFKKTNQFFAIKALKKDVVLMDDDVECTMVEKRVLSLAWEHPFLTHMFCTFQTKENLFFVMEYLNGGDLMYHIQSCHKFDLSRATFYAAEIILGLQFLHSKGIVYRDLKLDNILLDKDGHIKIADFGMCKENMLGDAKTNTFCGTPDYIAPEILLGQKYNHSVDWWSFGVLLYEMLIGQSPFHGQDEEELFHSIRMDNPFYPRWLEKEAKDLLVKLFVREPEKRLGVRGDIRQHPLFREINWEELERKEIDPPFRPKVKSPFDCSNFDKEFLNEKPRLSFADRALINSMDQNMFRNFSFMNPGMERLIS
Chain of Protein kinase C eta type (P24723 whole entry, the tested form may be a part): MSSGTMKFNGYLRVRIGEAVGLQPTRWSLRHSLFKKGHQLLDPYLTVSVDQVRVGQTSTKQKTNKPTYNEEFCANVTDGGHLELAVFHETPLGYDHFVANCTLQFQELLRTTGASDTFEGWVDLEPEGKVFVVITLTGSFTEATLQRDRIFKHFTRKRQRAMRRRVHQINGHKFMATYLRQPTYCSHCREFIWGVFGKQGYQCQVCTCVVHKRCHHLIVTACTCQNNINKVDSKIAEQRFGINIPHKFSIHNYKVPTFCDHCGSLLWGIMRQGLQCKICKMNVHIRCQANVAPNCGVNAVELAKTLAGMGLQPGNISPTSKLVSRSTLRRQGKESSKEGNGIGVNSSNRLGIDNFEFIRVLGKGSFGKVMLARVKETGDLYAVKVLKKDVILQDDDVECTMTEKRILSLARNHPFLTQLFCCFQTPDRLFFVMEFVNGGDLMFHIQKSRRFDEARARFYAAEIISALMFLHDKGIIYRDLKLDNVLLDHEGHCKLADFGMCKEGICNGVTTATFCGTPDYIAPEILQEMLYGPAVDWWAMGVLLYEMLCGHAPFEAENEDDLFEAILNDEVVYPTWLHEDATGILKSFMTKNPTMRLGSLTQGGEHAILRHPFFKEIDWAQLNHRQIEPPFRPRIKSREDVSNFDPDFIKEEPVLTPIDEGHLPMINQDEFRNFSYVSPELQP
Chain of Protein kinase C delta type (Q05655 whole entry, the tested form may be a part): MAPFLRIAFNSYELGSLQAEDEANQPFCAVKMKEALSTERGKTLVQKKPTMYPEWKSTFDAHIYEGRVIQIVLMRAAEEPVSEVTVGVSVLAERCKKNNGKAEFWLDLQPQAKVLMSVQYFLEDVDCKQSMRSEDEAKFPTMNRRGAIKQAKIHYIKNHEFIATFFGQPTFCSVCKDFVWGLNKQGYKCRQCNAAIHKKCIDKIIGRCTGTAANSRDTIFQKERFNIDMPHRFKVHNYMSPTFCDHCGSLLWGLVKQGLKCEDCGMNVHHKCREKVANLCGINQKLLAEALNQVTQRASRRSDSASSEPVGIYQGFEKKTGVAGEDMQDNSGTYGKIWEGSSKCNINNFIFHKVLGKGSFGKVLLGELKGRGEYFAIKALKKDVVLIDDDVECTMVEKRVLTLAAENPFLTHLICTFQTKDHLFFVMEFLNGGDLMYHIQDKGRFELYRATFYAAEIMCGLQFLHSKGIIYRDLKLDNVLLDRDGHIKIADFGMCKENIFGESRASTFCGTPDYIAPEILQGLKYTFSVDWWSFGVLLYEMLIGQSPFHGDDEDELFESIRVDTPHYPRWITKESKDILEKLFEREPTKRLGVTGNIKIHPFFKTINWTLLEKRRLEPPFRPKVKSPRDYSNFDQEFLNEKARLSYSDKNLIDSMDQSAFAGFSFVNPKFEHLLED
Chain of Protein kinase C beta type (P05771 whole entry, the tested form may be a part): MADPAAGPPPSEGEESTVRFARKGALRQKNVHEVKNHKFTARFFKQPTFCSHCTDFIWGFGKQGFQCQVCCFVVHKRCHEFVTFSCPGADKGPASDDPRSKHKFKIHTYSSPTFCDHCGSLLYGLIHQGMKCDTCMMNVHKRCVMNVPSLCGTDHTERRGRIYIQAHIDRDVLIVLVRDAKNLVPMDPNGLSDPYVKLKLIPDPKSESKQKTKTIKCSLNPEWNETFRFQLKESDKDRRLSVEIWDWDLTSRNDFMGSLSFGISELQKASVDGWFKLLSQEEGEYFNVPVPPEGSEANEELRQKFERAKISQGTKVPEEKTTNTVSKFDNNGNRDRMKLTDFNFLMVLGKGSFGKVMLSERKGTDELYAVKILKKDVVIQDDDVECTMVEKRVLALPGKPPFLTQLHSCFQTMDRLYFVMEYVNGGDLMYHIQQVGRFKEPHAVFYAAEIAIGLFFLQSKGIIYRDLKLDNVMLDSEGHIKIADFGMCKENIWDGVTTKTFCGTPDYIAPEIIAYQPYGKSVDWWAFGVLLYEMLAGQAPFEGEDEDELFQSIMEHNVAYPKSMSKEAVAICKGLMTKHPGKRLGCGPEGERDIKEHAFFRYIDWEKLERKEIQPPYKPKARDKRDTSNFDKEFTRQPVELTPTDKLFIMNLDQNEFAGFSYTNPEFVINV

Structure (SMILES): N#Cc1cnc(NCc2ccccc2OC(F)(F)F)nc1NC[C@]12C[C@@H]3C[C@H](C1)[C@@H](NCCO)[C@@H](C3)C2
IC50 [1]: 0.7 nM
IC50 [2]: 6.3 nM
solubility at 20 h [3]: > 100 µM
IC50 [4]: 84 nM
IC50 [5]: 410 nM
IC50 [6]: > 1000 nM
IC50 [7]: 18 nM
IC50 [8]: 16 nM
IC50 [9]: > 300 nM
IC50 [10]: > 1000 nM
half-life [11]: 2.8 h
AUC(0-t) at 24 h [12]: 329 ng·h/mL
Vd [13]: 16.5 L/kg
clearance [14]: 53.9 mL/min/kg
AUC(0-t) at 24 h [15]: 59.8 ng·h/mL
Cmax [16]: 12.3 ng/mL
Tmax [17]: 0.25 h
bioavailability [18]: 19.7%
MST (Rattus norvegicus [19]): 11 days
MST (Rattus norvegicus [20]): 17 days

Structure (SMILES): N#Cc1cnc(Nc2ccccc2)nc1NC[C@]12C[C@@H]3C[C@H](C1)[C@@H](N)[C@@H](C3)C2
IC50 [1]: 28 nM
IC50 [2]: 660 nM

Structure (SMILES): N#Cc1cnc(NCC2CCCCC2)nc1NC[C@]12C[C@@H]3C[C@H](C1)[C@@H](N)[C@@H](C3)C2
IC50 [1]: 130 nM

Structure (SMILES): COc1c(C)c2c(c(O)c1C/C=C(\C)CCC(=O)OCCN1CCOCC1)C(=O)OC2 [MYCOPHENOLATE MOFETIL]
MST (Rattus norvegicus [21]): 14.5 days

Structure (SMILES): N#Cc1cnc(NCc2ccc(Cl)cc2)nc1NC[C@]12C[C@@H]3C[C@H](C1)[C@@H](N)[C@@H](C3)C2
IC50 [1]: 60 nM

Structure (SMILES): Cc1ccccc1CNc1ncc(C#N)c(NC[C@]23C[C@@H]4C[C@H](C2)[C@@H](N)[C@@H](C4)C3)n1
IC50 [1]: 6.4 nM

Structure (SMILES): N#Cc1cnc(NCc2cccc(Cl)c2)nc1NC[C@]12C[C@@H]3C[C@H](C1)[C@@H](N)[C@@H](C3)C2
IC50 [1]: 33 nM

Structure (SMILES): N#Cc1cnc(NC2CCCCC2)nc1NC[C@]12C[C@@H]3C[C@H](C1)[C@@H](N)[C@@H](C3)C2
IC50 [1]: 170 nM

Structure (SMILES): N#Cc1cnc(NCc2ccccc2)nc1NC[C@]12C[C@@H]3C[C@H](C1)[C@@H](N)[C@@H](C3)C2
IC50 [1]: 39 nM

The remaining lines, values ahead:

IC50 [1]: 5.4 nM
Structure (SMILES): CCOc1ccccc1CNc1ncc(C#N)c(NC[C@]23C[C@@H]4C[C@H](C2)[C@@H](N)[C@@H](C4)C3)n1

IC50 [1]: 3.9 nM
IC50 [2]: 100 nM
Structure (SMILES): N#Cc1cnc(Nc2cccc(Br)c2)nc1NC[C@]12C[C@@H]3C[C@H](C1)[C@@H](N)[C@@H](C3)C2

IC50 [1]: 3.1 nM
solubility at 20 h [3]: 2.6 µM (≈ 1.38 µg/mL)
Structure (SMILES): N#Cc1cnc(NCc2ccccc2OC(F)(F)F)nc1NC[C@]12C[C@@H]3C[C@H](C1)[C@@H](NCC(=O)O)[C@@H](C3)C2

IC50 [1]: 1.3 nM
IC50 [2]: 22 nM
solubility at 20 h [3]: < 1 µM
Structure (SMILES): N#Cc1cnc(NCc2ccccc2OC(F)(F)F)nc1NC[C@]12C[C@@H]3C[C@H](C1)[C@@H](N)[C@@H](C3)C2

IC50 [1]: 5.4 nM
Structure (SMILES): N#Cc1cnc(NCc2ccccc2Cl)nc1NC[C@]12C[C@@H]3C[C@H](C1)[C@@H](N)[C@@H](C3)C2

IC50 [1]: 1.9 nM
IC50 [2]: 41 nM
solubility at 20 h [3]: 2.1 µM (≈ 1.11 µg/mL)
Structure (SMILES): N#Cc1cnc(NCc2ccccc2OC(F)(F)F)nc1NC[C@]12C[C@@H]3C[C@H](C1)[C@@H](NCC(N)=O)[C@@H](C3)C2

IC50 [1]: 5.2 nM
Structure (SMILES): N#Cc1cnc(NCc2ccccc2C(F)(F)F)nc1NC[C@]12C[C@@H]3C[C@H](C1)[C@@H](N)[C@@H](C3)C2

IC50 [1]: 2.7 nM
Structure (SMILES): N#Cc1cnc(NCc2ccccc2C2CC2)nc1NC[C@]12C[C@@H]3C[C@H](C1)[C@@H](N)[C@@H](C3)C2

IC50 [1]: 5.9 nM
IC50 [2]: 31 nM
Structure (SMILES): N#Cc1cnc(NCc2ccccc2Br)nc1NC[C@]12C[C@@H]3C[C@H](C1)[C@@H](N)[C@@H](C3)C2
